For orientation: Cmax means the peak of the concentration-time curve. As a reminder, the AUC is the area under the concentration-time curve, a measure of exposure.

The record followed here is US12410163B2, “Compounds as GLP-IR agonists” (Terns Pharmaceuticals, Inc., priority 2022, dated 2025).

Series [1] can be described thus: Rat pharmacokinetics. It counts as in vivo. As to conditions: male Sprague-Dawley rats, plasma, route not stated in table (IV or oral gavage 10 mL/kg of 0.3 or 0.6 mg/mL).
Series [2] can be described thus: Rat pharmacokinetics. The class given is in vivo. Also noted: AUC: concentration or dose not given beside the values. As to conditions: male Sprague-Dawley rats, plasma, route not given; for half-life: read-out: Rat T1/2 (converted). The method, then: Intravenous dosing: Compounds were formulated at 0.5 mg/mL in a solution comprising 5% polyethylene glycol 400 and 95% (12% (w/v) sulfobutyl-β-cyclodextrin in water) (v/v). Formulated compounds were sterile filtered through a 0.22 micron filter before dosing. Compounds were administered to male, 7-11-week-old Sprague-Dawley rats by jugular vein cannula infusion over 30 minutes at a dose of 1 mg/kg. […]
Sample collection: Blood collections of about 0.2 mL per time point were performed from jugular vein or other suitable site of each animal, into pre-chilled commercial EDTA-K2 tubes and placed on wet ice until centrifugation. Blood samples were processed for plasma by centrifugation at approximately 4° C., 3,200 g for 10 min. Plasma was collected and transferred into pre-labeled 96 well plate or polypropylene tubes, quick frozen over dry ice and kept at −60° C. or lower until LC-MS/MS analysis.
Data analysis: Plasma concentration versus time data was plotted in graph and analyzed by non-compartmental approaches using the Phoenix WinNonlin 6.3 software program. Related PK parameters were calculated according to dosing route, e.g., CL, Vdss and C0 for intravenous administration, Cmax, Tmax or % F for extravascular administration, and T1/2, AUC(0-t), AUC(0-inf), MRT(0-t), MRT(0-inf) for all routes.

Series [3] can be described thus: Metabolic stability in hepatocytes. The settings on record: cryopreserved human hepatocytes (suspension), 1×10^6 cells/mL; for half-life at 1 μM: 0-240 min, read-out: hHep t1/2; for CLint scaled at 1 μM: intrinsic clearance, read-out: hHep CLint. The class given is in vitro ADME. The procedure: Test compounds are incubated in human hepatocytes and stability is assessed from the substrate […] approach. Test compounds are dissolved in dimethyl sulfoxide (DMSO) to create a 10 mM Stock, and then further diluted to create a 1000× Working Stock of 1 mM with DMSO in 96-well plates for test compounds and the positive control (midazolam). Vials containing cryopreserved hepatocytes are removed from the liquid nitrogen tank and immediately immersed in a 37° C. water bath. The vials are shaken gently until the contents had thawed and were then immediately emptied into 48 mL of pre-warmed HT Medium in a 50 mL conical tube. Cells remaining in the vial are resuspended with 1.0 mL of pre-warmed HT Medium and added to the conical tube. The tube is capped and then gently inverted several times to resuspend the hepatocytes. The cell suspension is centrifuged at 50×g at room temperature for 5 minutes and the supernatant discarded. The cell pellet is loosened by gently swirling the centrifuge tube and is re-suspended in 4 mL of warm Dulbecco's Modified Eagle medium (DMEM). Cell density is determined by a cell counter by Nexcelom, and DMEM medium is added to obtain a target density of 1×10^6 cells/mL. The assay is carried out in 96-well microtiter plates. Test Compounds are incubated at 1 μM with 1×10^6 cells/mL hepatocytes in DMEM for 0, 30, 60, 120 and 240 minutes. The incubation is carried out with gentle shaking at 37° C. under a humid atmosphere of 95% air/5% CO2. The volume of the incubation mixture is 37 μL with a final 0.1% DMSO. At each of the time points, the incubation is stopped by adding 150 μL quenching solution (100% acetonitrile, 0.1% formic acid containing bucetin as an internal standard for positive ESI mode). Subsequently, the mixtures are vortexed for 20 min and centrifuged at 4,000 RPM at 10° C. The supernatant (80 μL) is transferred to a clean 96-well plate and analyzed by LC-MS/MS. Midazolam at 1 μM with a final 0.1% DMSO is included as a positive control to verify assay performance. The percent parent remaining, intrinsic and predicted hepatic clearance and t1/2 are calculated. All samples are analyzed by LC-MS/MS using an AB Sciex API 4000 instrument, coupled to a Shimadzu LC-20AD LC Pump system. Separation is achieved using a Waters Atlantis T3 dC18 reverse phase HPLC column (20 mm×2.1 mm) at a flow rate of 0.5 mL/min. The mobile phase consisted of 0.1% formic acid in water (solvent A) and 0.1% formic acid in 100% acetonitrile (solvent B). Elution conditions are detailed below.
The ion optics of each test compound are optimized for their declustering potential (DP), […] (CE), collision-cell exit potential (CXP) and used in a selected ion monitoring experiment in the positive ion mode. The peak area ratio of each test compound to internal standard is then evaluated for stability. The extent of metabolism is calculated based on the disappearance of the test compound, compared to its initial concentration. The initial rates of clearance of the test compound are calculated using the linear regression plot of semi-log % remaining of the compound versus time. The elimination rate constant (k) of the linear regression plot is then used to determine t1/2 and the intrinsic clearance (CLint) using the following formula, where Chepatocyte (million cells/mL) is the cell density of the incubation: k=−slope t1/2=0.693/k CLint=k/Chepatocyte
Test compounds were incubated in human hepatocytes and stability was assessed from the substrate […] approach. Test compounds were dissolved in dimethyl sulfoxide (DMSO) to create a 10 mM Stock, and then further diluted to create a 1000× Working Stock of 1 mM with DMSO in 96-well plates for test compounds and the positive control (midazolam). Vials containing cryopreserved hepatocytes were removed from the liquid nitrogen tank and immediately immersed in a 37° C. water bath. […]

`CCn1nncc1Cn1c(CN2CCN(c3cccc(OCc4ccc(C#N)cc4F)n3)[C@H]3C[C@H]32)nc2ccc(C(=O)O)cc21` [Compound 45, 2-((5-(6-((4-Cyano-2-fluorobenzyl)oxy)pyridin-2-yl)-2,5-diazabicyclo[4.1.0]heptan-2-yl)methyl)-1-((1-ethyl-1H-1,2,3-triazol-5-yl)methyl)-1H-benzo[d]imidazole-6-carboxylic Acid] had a peak concentration (Cmax) in series [1] of 9.62 ng/mL. Further, the AUC in series [2] amounted to 9.48 ng·h/mL. Moreover, in series [3], the half-life at 1 μM amounted to 6.2 h and the CLint scaled at 1 μM worked out at 6.46 mL/min/kg.

`N#Cc1ccc(COc2cccc([C@H]3CCN(Cc4nc5ccc(C(=O)O)cc5n4Cc4cncs4)[C@H]4C[C@@H]34)n2)c(F)c1` (single isomer, unassigned) [Compound 14, 2-((5-(6-((4-Cyano-2-fluorobenzyl)oxy)pyridin-2-yl)-2-azabicyclo[4.1.0]heptan-2-yl)methyl)-1-(thiazol-5-ylmethyl)-1H-benzo[d]imidazole-6-carboxylic Acid] yielded a Cmax in series [1] of 59.3 ± 5.68 ng/mL. In addition, in series [2], the AUC was found to be 66.8 ± 7.06 ng·h/mL and the half-life was 0.645 h. In series [3], the half-life at 1 μM was determined as 5.1 h and the CLint scaled at 1 μM is 7.86 mL/min/kg.

`N#Cc1ccc(COc2cccc(N3CCN(Cc4nc5ccc(C(=O)O)cc5n4Cc4cncs4)[C@H]4C[C@H]43)n2)c(F)c1` (single isomer, unassigned) [Compound 2, 2-((5-(6-((4-Cyano-2-fluorobenzyl)oxy)pyridin-2-yl)-2,5-diazabicyclo[4.1.0]heptan-2-yl)methyl)-1-(thiazol-5-ylmethyl)-1H-benzo[d]imidazole-6-carboxylic Acid]: the highest level in series [1] (Cmax) was 44.1 ± 6.5 ng/mL. Moreover, in series [2], the AUC is 63.5 ± 11.1 ng·h/mL and the half-life is 2.41 h. For the same molecule, the CLint scaled at 1 μM in series [3] was found to be 5.01 mL/min/kg.

`N#Cc1ccc(COc2cccc(N3CCN(Cc4nc5ccc(C(=O)O)cc5n4C[C@@H]4CCO4)[C@@H]4C[C@@H]43)n2)c(F)c1` (single isomer, unassigned) [Compound 43]: in series [1], the Cmax worked out at 64.5 ± 17.8 ng/mL. For the same molecule, in series [2], the AUC is 118 ± 10 ng·h/mL and the half-life was 1.19 h. Also, in series [3], the half-life at 1 μM stood at 5.65 h and the CLint scaled at 1 μM is 7.09 mL/min/kg.

Molecule `N#Cc1ccc(COc2cccc(N3CCN(Cc4nc5ccc(C(=O)O)cc5n4Cc4cncs4)[C@@H]4C[C@@H]43)n2)c(F)c1` (single isomer, unassigned) [Compound 1, 2-((5-(6-((4-cyano-2-fluorobenzyl)oxy)pyridin-2-yl)-2,5-diazabicyclo[4.1.0]heptan-2-yl)methyl)-1-(thiazol-5-ylmethyl)-1H-benzo[d]imidazole-6-carboxylic Acid] had a Cmax in series [1] of 34.7 ± 13.7 ng/mL. For the same molecule, in series [2], the AUC is 71.8 ± 90.3 ng·h/mL and the half-life was 4.58 h. Besides, in series [3], the half-life at 1 μM worked out at 3.36 h and the CLint scaled at 1 μM is 11.9 mL/min/kg.

The molecule `CC1(c2ccc(C#N)cc2F)Oc2cccc(N3CCN(Cc4nc5ccc(C(=O)O)cc5n4CC4(C#N)CC4)C4CC43)c2O1` (centres unmarked) [Compound 40, 2-((5-(2-(4-Cyano-2-fluorophenyl)-2-methylbenzo[d][1,3]dioxol-4-yl)-2,5-diazabicyclo[4.1.0]heptan-2-yl)methyl)-1-((1-cyanocyclopropyl)methyl)-1H-benzo[d]imidazole-6-carboxylic Acid] came in with a Cmax in series [1] of 28.3 ± 6.42 ng/mL. Further, in series [2], the AUC was determined as 44.2 ± 8.62 ng·h/mL and the half-life is 2.78 h. In series [3], the half-life at 1 μM was 6.85 h and the CLint scaled at 1 μM was 5.86 mL/min/kg.

`N#Cc1ccc(COc2cccc([C@@H]3CCN(Cc4nc5ccc(C(=O)O)cc5n4Cc4cncs4)[C@@H]4C[C@@H]43)n2)c(F)c1` (single isomer, unassigned) [Compound 5, 2-((5-(6-((4-Cyano-2-fluorobenzyl)oxy)pyridin-2-yl)-2-azabicyclo[4.1.0]heptan-2-yl)methyl)-1-(thiazol-5-ylmethyl)-1H-benzo[d]imidazole-6-carboxylic Acid]: the Cmax in series [1] came to 282 ± 4.04 ng/mL. In series [2], the exposure (AUC) is 418 ± 49.6 ng·h/mL and the half-life was 1.31 h. In series [3], the half-life at 1 μM is 5.37 h and the CLint scaled at 1 μM came out at 7.46 mL/min/kg.

In turn, `N#Cc1ccc(COc2cccc([C@H]3CCN(Cc4nc5ccc(C(=O)O)cc5n4Cc4cncs4)[C@@H]4C[C@H]34)n2)c(F)c1` (single isomer, unassigned) [Compound 4, 2-((5-(6-((4-Cyano-2-fluorobenzyl)oxy)pyridin-2-yl)-2-azabicyclo[4.1.0]heptan-2-yl)methyl)-1-(thiazol-5-ylmethyl)-1H-benzo[d]imidazole-6-carboxylic Acid] gave a Cmax in series [1] of 70 ± 32 ng/mL. Further, in series [2], the AUC was 86.3 ± 27.2 ng·h/mL and the half-life is 0.92 h. In series [3], the half-life at 1 μM is 2.87 h and the CLint scaled at 1 μM worked out at 14 mL/min/kg.

In turn, `N#Cc1ccc(COc2ccnc(N3CCN(Cc4nc5ccc(C(=O)O)cc5n4Cc4cncs4)[C@@H]4C[C@@H]43)n2)c(F)c1` [Compound 20, 2-((5-(4-((4-Cyano-2-fluorobenzyl)oxy)pyrimidin-2-yl)-2,5-diazabicyclo[4.1.0]heptan-2-yl)methyl)-1-(thiazol-5-ylmethyl)-1H-benzo[d]imidazole-6-carboxylic Acid] had a Cmax in series [1] of 15.5 ± 7.15 ng/mL. Also, in series [2], the AUC is 22.9 ± 30 ng·h/mL and the half-life was 0.578 h. In addition, in series [3], the half-life at 1 μM stood at 6.27 h and the CLint scaled at 1 μM was 6.4 mL/min/kg.

In series [1], `N#Cc1ccc(COc2cccc([C@@H]3CCN(Cc4nc5ccc(C(=O)O)cc5n4Cc4cncs4)[C@H]4C[C@@H]34)n2)c(F)c1` (single isomer, unassigned) [Compound 15, 2-((5-(6-((4-Cyano-2-fluorobenzyl)oxy)pyridin-2-yl)-2-azabicyclo[4.1.0]heptan-2-yl)methyl)-1-(thiazol-5-ylmethyl)-1H-benzo[d]imidazole-6-carboxylic Acid] had a Cmax of 77.4 ± 16.2 ng/mL. In addition, in series [2], the AUC came out at 71.7 ± 16.1 ng·h/mL and the half-life was 0.597 h. In series [3], the half-life at 1 μM was found to be 4.33 h and the CLint scaled at 1 μM stood at 9.24 mL/min/kg.

Molecule `CC1(c2ccc(C#N)cc2F)Oc2cccc(C3CCN(Cc4nc5ccc(C(=O)O)cc5n4Cc4cncs4)CC3)c2O1` (centres unmarked) [Compound 18] registered a Cmax in series [1] of 89.5 ± 23.6 ng/mL. For the same molecule, in series [2], the AUC was determined as 84.9 ± 32.2 ng·h/mL and the half-life was 0.89 h. In series [3], the half-life at 1 μM was 0.23 h and the CLint scaled at 1 μM came out at 17.5 mL/min/kg.
